Source: patent US11725011B2, “Bicyclic urea kinase inhibitors and uses thereof” (The Broad Institute, Inc., priority 2016, dated 2023)

What was measured:
[1] = Viability loss (Table 4); type: cell-based
[2] = molecular target: ABL1 (T315I)-phosphorylated (Homo sapiens (Human), UniProt P00519, T315I); experiment: KINOMEscan; type: binding; settings: 1 uM
[3] = molecular target: ABL1 (Y253F)-phosphorylated (Homo sapiens (Human), UniProt P00519, Y253F); experiment: KINOMEscan; type: binding; settings: 1 uM
[4] = molecular target: AKT2 (Homo sapiens (Human), UniProt P31751); experiment: KINOMEscan; type: binding; settings: 1 uM
[5] = molecular target: ALK (C1156Y) (Homo sapiens (Human), UniProt Q9UM73, C1156Y); experiment: KINOMEscan; type: binding; settings: 1 uM
[6] = molecular target: AURKA (Homo sapiens (Human), UniProt O14965); experiment: KINOMEscan; type: binding; settings: 1 uM
[7] = molecular target: AURKC (Homo sapiens (Human), UniProt Q9UQB9); experiment: KINOMEscan; type: binding; settings: 1 uM
[8] = molecular target: CDKL3 (Homo sapiens (Human), UniProt Q8IVW4); experiment: KINOMEscan; type: binding; settings: 1 uM
[9] = molecular target: DAPK1 (Homo sapiens (Human), UniProt P53355); experiment: KINOMEscan; type: binding; settings: 1 uM
[10] = molecular target: EGFR (L747-E749del, A750P) (Homo sapiens (Human), UniProt P00533, A750P/DEL747-749); experiment: KINOMEscan; type: binding; settings: 1 uM
[11] = molecular target: EGFR (L858R, T790M) (Homo sapiens (Human), UniProt P00533, L858R/T790M); experiment: KINOMEscan; type: binding; settings: 1 uM
[12] = molecular target: EPHA5 (Homo sapiens (Human), UniProt P54756); experiment: KINOMEscan; type: binding; settings: 1 uM
[13] = molecular target: ERBB2 (Homo sapiens (Human), UniProt P04626); experiment: KINOMEscan; type: binding; settings: 1 uM
[14] = molecular target: ERK4 (Homo sapiens (Human), UniProt P31152); experiment: KINOMEscan; type: binding; settings: 1 uM
[15] = molecular target: FES (Homo sapiens (Human), UniProt P07332); experiment: KINOMEscan; type: binding; settings: 1 uM
[16] = molecular target: FRK (Homo sapiens (Human), UniProt P42685); experiment: KINOMEscan; type: binding; settings: 1 uM
[17] = molecular target: HIPK4 (Homo sapiens (Human), UniProt Q8NE63); experiment: KINOMEscan; type: binding; settings: 1 uM
[18] = molecular target: IRAK1 (Homo sapiens (Human), UniProt P51617); experiment: KINOMEscan; type: binding; settings: 1 uM
[19] = molecular target: JNK2 (Homo sapiens (Human), UniProt P45984); experiment: KINOMEscan; type: binding; settings: 1 uM
[20] = molecular target: LOK (Homo sapiens (Human), UniProt O94804); experiment: KINOMEscan; type: binding; settings: 1 uM
[21] = molecular target: MAP4K3 (Homo sapiens (Human), UniProt Q8IVH8); experiment: KINOMEscan; type: binding; settings: 1 uM
[22] = molecular target: MST1 (Homo sapiens (Human), UniProt Q13043); experiment: KINOMEscan; type: binding; settings: 1 uM
[23] = molecular target: MST1R (Homo sapiens (Human), UniProt Q04912); experiment: KINOMEscan; type: binding; settings: 1 uM
[24] = molecular target: MYLK (Homo sapiens (Human), UniProt Q15746); experiment: KINOMEscan; type: binding; settings: 1 uM
[25] = molecular target: NDR2 (Homo sapiens (Human), UniProt Q9Y2H1); experiment: KINOMEscan; type: binding; settings: 1 uM
[26] = molecular target: NEK11 (Homo sapiens (Human), UniProt Q8NG66); experiment: KINOMEscan; type: binding; settings: 1 uM
[27] = molecular target: PAK4 (Homo sapiens (Human), UniProt O96013); experiment: KINOMEscan; type: binding; settings: 1 uM
[28] = molecular target: PIK3CA (C420R) (Homo sapiens (Human), UniProt P42336, C420R); experiment: KINOMEscan; type: binding; settings: 1 uM
[29] = molecular target: PKN2 (Homo sapiens (Human), UniProt Q16513); experiment: KINOMEscan; type: binding; settings: 1 uM
[30] = molecular target: PRKG2 (Homo sapiens (Human), UniProt Q13237); experiment: KINOMEscan; type: binding; settings: 1 uM
[31] = molecular target: RET (V804L) (Homo sapiens (Human), UniProt P07949, V804L); experiment: KINOMEscan; type: binding; settings: 1 uM
[32] = molecular target: SBK1 (Homo sapiens (Human), UniProt Q52WX2); experiment: KINOMEscan; type: binding; settings: 1 uM
[33] = molecular target: SIK2 (Homo sapiens (Human), UniProt Q9H0K1); experiment: KINOMEscan; type: binding; settings: 1 uM
[34] = molecular target: SRC (Homo sapiens (Human), UniProt P12931); experiment: KINOMEscan; type: binding; settings: 1 uM
[35] = molecular target: STK33 (Homo sapiens (Human), UniProt Q9BYT3); experiment: KINOMEscan; type: binding; settings: 1 uM
[36] = molecular target: TIE2 (Homo sapiens (Human), UniProt Q02763); experiment: KINOMEscan; type: binding; settings: 1 uM
[37] = molecular target: TRPM6 (Homo sapiens (Human), UniProt Q9BX84); experiment: KINOMEscan; type: binding; settings: 1 uM
[38] = molecular target: ULK3 (Homo sapiens (Human), UniProt Q6PHR2); experiment: KINOMEscan; type: binding; settings: 1 uM
[39] = molecular target: WEE1 (Homo sapiens (Human), UniProt P30291); experiment: KINOMEscan; type: binding; settings: 1 uM
[40] = molecular target: YANK3 (Homo sapiens (Human), UniProt Q86UX6); experiment: KINOMEscan; type: binding; settings: 1 uM

Sequence of RET (V804L) (P07949 29-1114 V804L): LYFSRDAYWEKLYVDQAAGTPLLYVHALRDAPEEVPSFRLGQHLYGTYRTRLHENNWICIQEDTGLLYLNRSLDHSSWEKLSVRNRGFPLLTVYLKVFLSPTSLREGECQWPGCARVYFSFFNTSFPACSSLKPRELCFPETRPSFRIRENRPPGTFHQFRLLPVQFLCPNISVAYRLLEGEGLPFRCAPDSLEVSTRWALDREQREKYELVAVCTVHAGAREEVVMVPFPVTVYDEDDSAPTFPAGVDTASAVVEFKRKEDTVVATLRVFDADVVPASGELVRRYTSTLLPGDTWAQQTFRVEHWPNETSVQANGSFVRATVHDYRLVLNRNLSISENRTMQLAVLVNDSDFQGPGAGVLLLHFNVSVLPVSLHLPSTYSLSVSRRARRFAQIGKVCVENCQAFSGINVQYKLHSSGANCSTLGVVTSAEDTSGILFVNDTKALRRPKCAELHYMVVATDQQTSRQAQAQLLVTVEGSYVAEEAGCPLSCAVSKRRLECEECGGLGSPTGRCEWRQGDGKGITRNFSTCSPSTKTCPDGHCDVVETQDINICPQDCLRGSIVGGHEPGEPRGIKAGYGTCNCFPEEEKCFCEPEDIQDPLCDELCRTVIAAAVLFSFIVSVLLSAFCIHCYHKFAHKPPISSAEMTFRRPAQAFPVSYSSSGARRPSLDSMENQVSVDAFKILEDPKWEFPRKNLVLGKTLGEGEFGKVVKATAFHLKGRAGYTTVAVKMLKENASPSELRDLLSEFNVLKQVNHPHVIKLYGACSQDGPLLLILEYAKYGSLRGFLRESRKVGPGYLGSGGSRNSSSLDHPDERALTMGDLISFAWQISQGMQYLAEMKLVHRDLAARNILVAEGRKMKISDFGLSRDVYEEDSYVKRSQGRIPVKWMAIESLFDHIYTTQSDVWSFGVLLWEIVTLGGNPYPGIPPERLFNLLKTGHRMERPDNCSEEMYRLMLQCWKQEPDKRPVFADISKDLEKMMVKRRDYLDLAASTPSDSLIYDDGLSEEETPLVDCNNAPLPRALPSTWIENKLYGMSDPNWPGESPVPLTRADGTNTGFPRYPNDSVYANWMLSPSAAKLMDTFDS
Sequence of ULK3 (Q6PHR2 whole entry): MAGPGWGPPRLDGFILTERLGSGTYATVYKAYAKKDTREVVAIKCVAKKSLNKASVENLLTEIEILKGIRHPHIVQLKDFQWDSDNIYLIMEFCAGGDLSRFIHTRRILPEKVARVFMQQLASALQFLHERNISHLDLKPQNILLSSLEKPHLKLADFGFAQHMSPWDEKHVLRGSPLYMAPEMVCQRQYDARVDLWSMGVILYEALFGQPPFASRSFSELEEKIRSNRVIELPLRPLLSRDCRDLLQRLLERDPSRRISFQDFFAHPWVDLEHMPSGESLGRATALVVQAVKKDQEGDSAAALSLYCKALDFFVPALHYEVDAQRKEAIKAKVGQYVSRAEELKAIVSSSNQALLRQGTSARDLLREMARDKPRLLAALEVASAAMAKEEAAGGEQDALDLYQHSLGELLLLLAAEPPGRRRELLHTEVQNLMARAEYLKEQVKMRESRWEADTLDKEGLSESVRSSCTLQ
Sequence of LOK (O94804 whole entry): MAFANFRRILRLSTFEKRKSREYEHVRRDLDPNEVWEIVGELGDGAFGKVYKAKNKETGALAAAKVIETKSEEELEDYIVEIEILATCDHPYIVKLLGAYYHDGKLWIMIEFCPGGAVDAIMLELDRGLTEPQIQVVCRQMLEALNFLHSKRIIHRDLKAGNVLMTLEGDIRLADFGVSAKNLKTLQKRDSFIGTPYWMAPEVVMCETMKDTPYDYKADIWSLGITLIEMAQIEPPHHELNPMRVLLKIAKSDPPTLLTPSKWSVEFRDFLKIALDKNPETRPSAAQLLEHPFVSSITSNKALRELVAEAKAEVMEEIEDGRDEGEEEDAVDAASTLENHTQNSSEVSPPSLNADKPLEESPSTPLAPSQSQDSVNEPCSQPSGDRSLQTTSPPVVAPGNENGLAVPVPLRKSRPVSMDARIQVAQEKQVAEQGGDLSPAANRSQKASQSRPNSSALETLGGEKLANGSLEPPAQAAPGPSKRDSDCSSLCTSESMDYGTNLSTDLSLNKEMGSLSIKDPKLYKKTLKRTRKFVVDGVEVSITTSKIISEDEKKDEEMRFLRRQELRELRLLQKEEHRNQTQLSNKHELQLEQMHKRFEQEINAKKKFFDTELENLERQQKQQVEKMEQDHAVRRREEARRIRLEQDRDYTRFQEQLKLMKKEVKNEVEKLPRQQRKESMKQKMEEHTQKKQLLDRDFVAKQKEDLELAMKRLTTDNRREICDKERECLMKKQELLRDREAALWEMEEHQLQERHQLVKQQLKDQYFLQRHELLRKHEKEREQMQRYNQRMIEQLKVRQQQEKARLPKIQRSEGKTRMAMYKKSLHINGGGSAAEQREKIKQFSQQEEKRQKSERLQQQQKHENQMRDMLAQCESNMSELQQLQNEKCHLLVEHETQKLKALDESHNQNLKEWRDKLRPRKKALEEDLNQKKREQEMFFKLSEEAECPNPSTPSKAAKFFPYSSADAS
Sequence of TRPM6 (Q9BX84 whole entry): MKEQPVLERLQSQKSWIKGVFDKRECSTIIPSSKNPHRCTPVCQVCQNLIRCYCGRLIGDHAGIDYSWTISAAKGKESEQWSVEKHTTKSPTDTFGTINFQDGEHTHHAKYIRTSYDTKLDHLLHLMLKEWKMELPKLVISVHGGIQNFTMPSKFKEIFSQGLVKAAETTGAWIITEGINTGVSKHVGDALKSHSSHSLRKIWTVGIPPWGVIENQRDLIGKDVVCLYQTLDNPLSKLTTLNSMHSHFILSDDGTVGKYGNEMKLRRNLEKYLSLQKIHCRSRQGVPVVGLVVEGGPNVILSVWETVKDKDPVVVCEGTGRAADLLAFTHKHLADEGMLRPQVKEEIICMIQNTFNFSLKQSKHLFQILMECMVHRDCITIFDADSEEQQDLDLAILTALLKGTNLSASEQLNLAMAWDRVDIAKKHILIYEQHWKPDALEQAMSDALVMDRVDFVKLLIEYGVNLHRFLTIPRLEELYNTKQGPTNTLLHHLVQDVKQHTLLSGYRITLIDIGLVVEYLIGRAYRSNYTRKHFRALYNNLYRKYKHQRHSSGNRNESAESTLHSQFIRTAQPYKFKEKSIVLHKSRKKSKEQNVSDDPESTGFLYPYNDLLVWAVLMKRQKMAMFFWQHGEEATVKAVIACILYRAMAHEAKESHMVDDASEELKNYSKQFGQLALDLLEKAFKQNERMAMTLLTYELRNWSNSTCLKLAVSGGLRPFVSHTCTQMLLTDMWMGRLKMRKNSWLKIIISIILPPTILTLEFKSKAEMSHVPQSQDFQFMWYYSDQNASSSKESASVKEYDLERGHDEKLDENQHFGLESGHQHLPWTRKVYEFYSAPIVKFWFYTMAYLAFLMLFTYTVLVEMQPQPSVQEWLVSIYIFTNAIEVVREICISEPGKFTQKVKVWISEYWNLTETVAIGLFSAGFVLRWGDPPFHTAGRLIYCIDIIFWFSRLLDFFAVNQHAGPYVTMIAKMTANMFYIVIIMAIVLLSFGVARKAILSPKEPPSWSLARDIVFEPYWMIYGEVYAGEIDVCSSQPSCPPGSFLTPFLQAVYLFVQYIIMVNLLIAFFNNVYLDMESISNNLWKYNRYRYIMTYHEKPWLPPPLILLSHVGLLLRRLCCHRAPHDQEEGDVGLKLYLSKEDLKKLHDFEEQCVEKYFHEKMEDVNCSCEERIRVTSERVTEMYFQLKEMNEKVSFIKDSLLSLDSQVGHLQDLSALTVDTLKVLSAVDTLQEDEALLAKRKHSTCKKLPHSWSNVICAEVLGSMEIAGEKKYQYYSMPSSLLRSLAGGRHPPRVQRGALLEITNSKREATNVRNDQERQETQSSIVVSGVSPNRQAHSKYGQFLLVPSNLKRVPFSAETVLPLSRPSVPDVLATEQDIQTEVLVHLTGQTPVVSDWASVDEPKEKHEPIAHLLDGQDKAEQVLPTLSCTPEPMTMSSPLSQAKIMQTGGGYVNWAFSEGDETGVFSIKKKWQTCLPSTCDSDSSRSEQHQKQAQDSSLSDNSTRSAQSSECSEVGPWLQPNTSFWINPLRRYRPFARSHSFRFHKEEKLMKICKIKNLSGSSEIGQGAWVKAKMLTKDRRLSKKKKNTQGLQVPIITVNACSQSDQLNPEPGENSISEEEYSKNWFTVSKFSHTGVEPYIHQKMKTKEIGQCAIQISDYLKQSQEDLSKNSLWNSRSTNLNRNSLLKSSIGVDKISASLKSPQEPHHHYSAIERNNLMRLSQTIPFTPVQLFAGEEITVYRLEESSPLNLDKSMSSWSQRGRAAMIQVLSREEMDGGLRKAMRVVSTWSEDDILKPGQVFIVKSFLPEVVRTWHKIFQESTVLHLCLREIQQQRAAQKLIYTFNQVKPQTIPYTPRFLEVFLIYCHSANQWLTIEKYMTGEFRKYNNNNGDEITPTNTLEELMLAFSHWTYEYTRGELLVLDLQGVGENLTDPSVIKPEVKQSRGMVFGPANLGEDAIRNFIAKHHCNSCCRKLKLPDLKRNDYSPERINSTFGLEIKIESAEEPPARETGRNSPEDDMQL
Sequence of NDR2 (Q9Y2H1 whole entry): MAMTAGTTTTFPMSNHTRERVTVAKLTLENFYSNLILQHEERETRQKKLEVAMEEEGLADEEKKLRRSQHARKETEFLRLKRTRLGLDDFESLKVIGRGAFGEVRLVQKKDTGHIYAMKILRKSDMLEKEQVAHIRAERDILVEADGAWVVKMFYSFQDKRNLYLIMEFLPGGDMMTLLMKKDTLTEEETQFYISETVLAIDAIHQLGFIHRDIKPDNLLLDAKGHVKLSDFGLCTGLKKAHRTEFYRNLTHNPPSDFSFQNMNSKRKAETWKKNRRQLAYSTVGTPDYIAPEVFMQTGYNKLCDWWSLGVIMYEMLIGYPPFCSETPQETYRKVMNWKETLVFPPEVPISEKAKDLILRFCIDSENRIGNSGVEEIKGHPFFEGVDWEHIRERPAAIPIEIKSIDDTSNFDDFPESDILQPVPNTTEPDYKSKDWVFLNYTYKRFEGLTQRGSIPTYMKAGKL

COc1ccc(N2C(=O)N(c3c(C)cccc3C)Cc3cnc(Nc4ccc(N5CCN(C)CC5)cc4)nc32)c(OC)c1 [HG-11-136-01]
Viability loss AC40 [1]: 0.097 µM
Viability loss data mode [1]: decreasing
KINOMEscan ABL1 (T315I)-phosphorylated [2]: 1.2
KINOMEscan ABL1 (Y253F)-phosphorylated [3]: 0.15
KINOMEscan AKT2 [4]: 100
KINOMEscan ALK (C1156Y) [5]: 12
KINOMEscan AURKA [6]: 0
KINOMEscan AURKC [7]: 33
KINOMEscan CDKL3 [8]: 58
KINOMEscan DAPK1 [9]: 63
KINOMEscan EGFR (L747-E749del, A750P) [10]: 0.35
KINOMEscan EGFR (L858R, T790M) [11]: 1.7
KINOMEscan EPHA5 [12]: 0.6
KINOMEscan ERBB2 [13]: 0
KINOMEscan ERK4 [14]: 95
KINOMEscan FES [15]: 0
KINOMEscan FRK [16]: 0.05
KINOMEscan HIPK4 [17]: 51
KINOMEscan IRAK1 [18]: 4.4
KINOMEscan JNK2 [19]: 20
KINOMEscan LOK [20]: 0
KINOMEscan MAP4K3 [21]: 1.8
KINOMEscan MST1 [22]: 2.1
KINOMEscan MST1R [23]: 100
KINOMEscan MYLK [24]: 86
KINOMEscan NDR2 [25]: 28
KINOMEscan NEK11 [26]: 21
KINOMEscan PAK4 [27]: 34
KINOMEscan PIK3CA (C420R) [28]: 69
KINOMEscan PKN2 [29]: 94
KINOMEscan PRKG2 [30]: 92
KINOMEscan RET (V804L) [31]: 24
KINOMEscan SBK1 [32]: 6.6
KINOMEscan SIK2 [33]: 6.1
KINOMEscan SRC [34]: 0.15
KINOMEscan STK33 [35]: 24
KINOMEscan TIE2 [36]: 0.75
KINOMEscan TRPM6 [37]: 69
KINOMEscan ULK3 [38]: 2
KINOMEscan WEE1 [39]: 69
KINOMEscan YANK3 [40]: 32
